Reference: patent US8138211B2, “Isothiazolyloxyphenylamidines and their use as fungicides” (Bayer Cropscience AG, priority 2009, dated 2012)
Where two headings read alike, the source gives them in different places.

Tests used:
[1] = logP by HPLC on reversed-phase columns (C18), EEC Directive 79/831 Annex V.A8; assay type: physicochemical
Procedure: The logP values were measured in accordance with EEC Directive 79/831 Annex V.A8 by HPLC (High Performance Liquid Chromatography) on reversed-phase columns (C18), using the method below: ^[a] The determination was carried out in the acidic range at pH 2.3 using the mobile phases 0.1% aqueous phosphoric acid and acetonitrile linear gradient from 10% acetonitrile to 95% acetonitrile. ^[b] The LC-MS determination in the acidic range was carried out at pH 2.7 using the mobile phases 0.1% aqueous formic acid and acetonitrile (comprising 0.1% formic acid) linear gradient from 10% acetonitrile to 95% acetonitrile ^[c] The LC-MS determination in the neutral range was carried out at pH 7.8 using the mobile phases 0.001 molar ammonium bicarbonate solution and acetonitrile linear gradient from 10% acetonitrile to 95% acetonitrile. Calibration was carried out using unbranched alkan-2-ones (having 3 to 16 carbon atoms) with known logP values (determination of the logP values by the retention times using linear interpolation between two successive alkanones).

Pyricularia oryzae = assay type: in vivo; details: active compound concentration of 250 ppm; rice, protective; evaluation 7 days after inoculation
Cochliobolus miyabeanus = assay: Cochliobolus test (rice)/protective; details: active compound concentration of 250 ppm, protective, evaluation 4 days after inoculation
Procedure: • Solvent: 28.5 parts by weight of acetone • Emulsifier: 1.5 parts by weight of alkylaryl polyglycol ether
One day after the treatment, the plants are inoculated with an aqueous spore suspension of Cochliobolus miyabeanus. The plants are then placed in a greenhouse at 100% relative atmospheric humidity and 25° C.
Evaluation is carried out 4 days after the inoculation.

[2] = reversed-phase HPLC column (C18), LC-MS, acidic range pH 2.7, 0.1% aqueous formic acid and acetonitrile, read-out: logP(HCO2H)

| Structure (SMILES) | chromatographic logP ([1]; pH 2.7) | also measured |
| --- | --- | --- |
| CCN(C)/C=N/c1cc(C)c(Oc2cc(-c3ccccc3)ns2)cc1C [No. 43, N′-{2,5-dimethyl-4-[(3-phenyl-1,2-thiazol-5-yl)oxy]phenyl}-N-ethyl-N-methylimidoformamide] | 2.11 |  |
| Clc1snc(-c2ccccc2)c1Br [4-bromo-5-chloro-3-phenylisothiazole] |  | chromatographic logP [1, 2]: 4.41 |
| CCCN(C)/C=N/c1cc(C)c(Oc2snc(C(C)(C)C)c2C#N)cc1C [No. 4, N′-{4-[(3-tert-butyl-4-cyano-1,2-thiazol-5-yl)oxy]-2,5-dimethylphenyl}-N-methyl-N-propylimidoformamide] | 2.19 |  |
| N#Cc1c(Cc2ccc(Cl)cc2)nsc1N [5-amino-3-(4-chlorobenzyl)isothiazole-4-carbonitrile] |  | chromatographic logP [1, 2]: 2.4 |
| CCN(C)/C=N/c1cc(C)c(Oc2snc(-c3ccccc3)c2Cl)cc1C [No. 48, N′-{4-[(4-chloro-3-phenyl-1,2-thiazol-5-yl)oxy]-2,5-dimethylphenyl}-N-ethyl-N-methylimidoformamide] | 2.25 |  |
| CC(C)(C)c1nsc(N)c1C#N [5-amino-3-tert-butylisothiazole-4-carbonitrile] |  | chromatographic logP [1, 2]: 2.4 |
| Nc1snc(-c2ccccc2)c1Cl [4-chloro-3-phenylisothiazol-5-amine] |  | chromatographic logP [1, 2]: 2.21 |
| Clc1snc(-c2ccccc2)c1Cl [4,5-dichloro-3-phenylisothiazole] | 4.44 |  |
| CCN(C)/C=N/c1cc(Cl)c(Oc2snc(-c3ccccc3)c2Br)cc1C [No. 54, N′-{4-[(4-bromo-3-phenyl-1,2-thiazol-5-yl)oxy]-5-chloro-2-methylphenyl}-N-ethyl-N-methylimidoformamide] | 2.26 |  |
| Cc1cc(Oc2snc(-c3ccccc3)c2Br)c(Cl)cc1N [4-[(4-bromo-3-phenylisothiazol-5-yl)oxy]-5-chloro-2-methylaniline] | 4.41 |  |
| Clc1cc(-c2ccccc2)ns1 [5-chloro-3-phenylisothiazole] | 3.82 |  |
| Cc1cc(Oc2snc(-c3ccccc3)c2Cl)c(C)cc1N [4-[(4-chloro-3-phenylisothiazol-5-yl)oxy]-2,5-dimethylaniline] | 4.22 |  |
| Cc1cc(Oc2snc(Cc3ccc(Cl)cc3)c2C#N)c(C)cc1N [5-(4-amino-2,5-dimethylphenoxy)-3-(4-chlorobenzyl)isothiazole-4-carbonitrile] | 4.03 |  |
| Nc1snc(-c2ccccc2)c1Br [4-bromo-3-phenylisothiazol-5-amine] |  | chromatographic logP [1, 2]: 2.26 |
| N#Cc1c(Cc2ccc(Cl)cc2)nsc1Cl [5-chloro-3-(4-chlorobenzyl)isothiazole-4-carbonitrile] | 3.87 |  |
| CCN(C)C=Nc1cc(C)c(Oc2snc(C(C)(C)C)c2C#N)cc1C [compound 6] |  | efficacy (Pyricularia oryzae): ≥ 80%; efficacy (Cochliobolus miyabeanus): ≥ 80% |
| CCN(C)/C=N/c1cc(C)c(Oc2snc(Cc3ccc(Cl)cc3)c2C#N)cc1C [No. 27, N′-(4-{[3-(4-chlorobenzyl)-4-cyano-1,2-thiazol-5-yl]oxy}-2,5-dimethylphenyl)-N-ethyl-N-methylimidoformamide] | 2.39 |  |
| Cc1cc(Oc2cc(-c3ccccc3)ns2)c(C)cc1N [2,5-dimethyl-4-[(3-phenylisothiazol-5-yl)oxy]aniline] | 3.6 |  |
